{"source": "patent US12569437B2", "about": "“Disease-site-specific liposomal formulation” (Osaka University, priority 2017, dated 2026)", "type_in_all_cases": "in vivo", "key": {"[1]": {"tested_on": "rat model of ischemia by complete coronary artery ligation", "experiment": "Echocardiography (EF %, % FS) in rat model of ischemia by complete coronary artery ligation", "description": "An improvement in the cardiac function against ischemic heart disease and an effect of preventing death from heart failure by intermittent intravenous administration of Formulation 25 (ONO-1301Lipo) or compound (A) (ONO-1301) were analyzed by using the left ventricular ejection fraction (hereinafter referred to as “EF %”), left ventricular fractional shortening (hereinafter referred to as “% FS”), and histological evaluation, based on echocardiography, as indices.\nMale Sprague-Dawley rats (CLEA Japan, Inc., 6 weeks old when arrived) were anesthetized with a liquid mixture of 0.5 mg/kg of midazolam (Dormicum Injection 10 mg, Astellas Pharma Inc.) and 2 mg/kg of xylazine (Celactal 2% injection, Bayer Japan Ltd.). Thereafter, the animal tail veins were secured, and Propofol (1% Diprivan Injection; AstraZeneca K.K.) was continuously infused at 6 to 10 mg/kg/hr with a syringe pump (Terufusion TE-3310N; Terumo Corporation) to maintain deep anesthesia. Thereafter, a tracheal cannula (a cut-down catheter with an outside diameter of 2.0 mm, produced by JMS Co., Ltd.) was inserted and indwelled, and a respirator (for small animals; Shinano Seisakusho) was connected to maintain breathing at a stroke volume of 1 mL/100 g/stroke (±1 mL) and a stroke rate of 70 times/min (±10 times). Thereafter, the animals were fixed in a recumbent position from a dorsal fixed position so that the left chest faced upward, and the epidermis and muscle layer between the third to fourth or fourth to fifth ribs were incised with a surgical knife. After confirming that the knife reached the thoracic cavity, the intercostal space was widened with a rib spreader, and a state in which the anterior descending branch (hereinafter referred to as “LAD”) from the left atrial appendage was directly visible at the front was secured.\nThereafter, the translucent thin pericardium was removed with tweezers to expose the myocardium. Thereafter, the LAD located at the margin of the left atrial appendage was pierced and secured with a nylon thread with a 6-0 or 7-0 needle at a depth of 2 to 3 mm using a microneedle holder, and the LAD was completely ligated. Thereafter, the muscle layer and epidermis were sutured and closed with a 4-0 or 5-0 nylon thread. After the chest was closed, 50 mg of cefamedin was subcutaneously administered to the treatment site, and the treatment was terminated.\nEchocardiography was performed to confirm the cardiac function improving effect of the test substances using the left ventricular ejection fraction (hereinafter referred to as “EF %”) as an index.\nThe test was performed 23 hours after the preparation of the model (test for grouping), the animals whose EF % value decreased by 25% or more of that of normal animals were selected, grouping was performed, and a solution for administration of the test substances was administered by tail vein intravenous administration 24 hours after the preparation of the model. Thereafter, echocardiography was performed 7 and 14 days after the test substance administration."}, "[2]": {"tested_on": "spontaneous dilated cardiomyopathy (J2N-k) hamster model", "experiment": "Echocardiography (EF %, % FS) in spontaneous dilated cardiomyopathy hamsters", "conditions": "for % FS Pre / EF % Pre: at grouping; for % FS 4 W / EF % 4 W: week 4; for % FS 8 W / EF % 8 W: week 8", "description": "Improvement in the DDS cardiac function in the spontaneous dilated cardiomyopathy (J2N-k) hamster model by intermittent intravenous administration of Formulation 25 and compound (A) (ONO-1301) once every two weeks was evaluated by comparing the left ventricular ejection fraction (hereinafter referred to as “EF %”), left ventricular fractional shortening (hereinafter referred to as “% FS”), and histological evaluation, based on echocardiography, taken as indices. As a positive control, a group in which compound (A) (ONO-1301) was repeatedly orally administered twice daily was created.\nAs a test substance, Formulation 25 was used by suspending and diluting with physiological saline. Compound (A) (ONO-1301) as a control was used by dissolving in an equivalent amount of aqueous NaOH, and diluting with physiological saline. For groups of oral administration of compound (A) (ONO-1301), administration was performed as a suspension in a 0.5% CMC-Na aqueous solution.\nThe spontaneous dilated cardiomyopathy (J2N-k) male hamsters, 20 weeks old at the start of administration, Japan SLC, Inc., were administered with the test substances for 8 weeks, and used for comparison.\nAnimals arrived at the age of 18 weeks were subjected to a 2-week quarantine/acclimation period, and then to the test at the time of grouping (test start date) at the age of 20 weeks. Thereafter, tests were conducted 4 and 8 weeks after the test start date, and dissection was performed 8 weeks after the test start date.\nEchocardiography was performed at the time of grouping, and at week 4 and week 8 after the start of administration. The measurement was performed 3 times for each individual, and the average value of the measured data was referred to as the measurement results."}, "[3]": {"tested_on": "rat model of ischemia by complete coronary artery ligation", "experiment": "Infarct area evaluation in rat myocardial ischemia model", "conditions": "3.0 mg/kg single i.v., day 14", "description": "Dissection was performed after the completion of the echocardiography at day 14 after the administration of the test substance. For dissection, all of the blood was collected from the abdominal aorta, and the rats were euthanized under isoflurane anesthesia; thereafter, the heart was removed and weighed. After measuring the heart weight, the infarct area, including the left and right ventricles, was divided into three parts along the short axis.\nFor the sections, the apical portion was removed, and the middle area was sectioned into two parts at an interval of about 2 mm. Thereafter, the infarct area of the two sections on the apical and basal sides was measured. The infarct area was evaluated based on the ratio of the infarct area to the entire left ventricular area, and the ratio of the length of the normal area or the infarct area to the left ventricular outer diameter.\n[…]"}, "[4]": {"conditions": "3.0 mg/kg single i.v. 24 hours after infarction, day 7"}, "[5]": {"conditions": "3.0 mg/kg single i.v. 24 hours after infarction, day 14"}, "[6]": {"conditions": "group 3.0 mg/kg single i.v., 23 hours after LAD ligation, before administration"}, "[7]": {"conditions": "3.0 mg/kg intravenous once/2 weeks"}}, "note": "Marks after values point to notes of the source that are not given here.", "data": [{"smiles": "O=C(O)COc1cccc2c1CCC=C2CCO/N=C(\\c1ccccc1)c1cccnc1", "note": "[Compound (A), ({5-[2-({[(1E)-phenyl(pyridin-3-yl)methylene]amino}oxy)ethyl]-7,8-dihydronaphthalen-1-yl}oxy)acetic acid]", "values": [{"measurement": "% FS 1 W", "setting": "[1]; [4]", "value": "25.4 ± 5.6", "unit": "%"}, {"measurement": "EF % 1 W", "setting": "[1]; [4]", "value": "54.6 ± 8.8", "unit": "%"}, {"measurement": "% FS 2 W", "setting": "[1]; [5]", "value": "24.5 ± 4.4", "unit": "%"}, {"measurement": "EF % 2 W", "setting": "[1]; [5]", "value": "53.2 ± 7.1", "unit": "%"}, {"measurement": "% FS Pre", "setting": "[1]; [6]", "value": "26.5 ± 3.7", "unit": "%"}, {"measurement": "EF % Pre", "setting": "[1]; [6]", "value": "56.7 ± 5.5", "unit": "%"}, {"measurement": "% FS Pre", "setting": "[2]; [7]", "value": "16.0 ± 2.1", "unit": "%"}, {"measurement": "EF % Pre", "setting": "[2]; [7]", "value": "38.8 ± 4.3", "unit": "%"}, {"measurement": "% FS 4 W", "setting": "[2]; [7]", "value": "16.1 ± 3.1", "unit": "%"}, {"measurement": "EF % 4 W", "setting": "[2]; [7]", "value": "35.7 ± 7.4", "unit": "%"}, {"measurement": "% FS 8 W", "setting": "[2]; [7]", "value": "12.3 ± 1.3^a %"}, {"measurement": "EF % 8 W", "setting": "[2]; [7]", "value": "30.8 ± 2.9^a %"}, {"measurement": "% FS Pre", "setting": "[2]; 3.0 mg/kg p.o. twice/day", "value": "18.2 ± 3.9", "unit": "%"}, {"measurement": "EF % Pre", "setting": "[2]; 3.0 mg/kg p.o. twice/day", "value": "43.0 ± 7.8", "unit": "%"}, {"measurement": "% FS 4 W", "setting": "[2]; 3.0 mg/kg p.o. twice/day", "value": "17.2 ± 7.2", "unit": "%"}, {"measurement": "EF % 4 W", "setting": "[2]; 3.0 mg/kg p.o. twice/day", "value": "40.4 ± 14.9", "unit": "%"}, {"measurement": "% FS 8 W", "setting": "[2]; 3.0 mg/kg p.o. twice/day", "value": "17.1 ± 4.5", "unit": "%"}, {"measurement": "EF % 8 W", "setting": "[2]; 3.0 mg/kg p.o. twice/day", "value": "40.3 ± 9.2", "unit": "%"}, {"measurement": "Left ventricular area (mm^2) Infarct region", "setting": "[3]; first of two sections", "value": "18.1 ± 5.18", "unit": "mm^2"}, {"measurement": "Left ventricular area (mm^2) Normal region", "setting": "[3]; first of two sections", "value": "31.1 ± 2.83", "unit": "mm^2"}, {"measurement": "Left ventricular area Infarct rate (%)", "setting": "[3]; first of two sections", "value": "36 ± 8.0", "unit": "%"}, {"measurement": "Left ventricular outer diameter (cm) Infarct region", "setting": "[3]; first of two sections", "value": "1.5 ± 0.15", "unit": "cm"}, {"measurement": "Left ventricular outer diameter (cm) Normal region", "setting": "[3]; first of two sections", "value": "1.7 ± 0.41", "unit": "cm"}, {"measurement": "Left ventricular outer diameter Infarct rate (%)", "setting": "[3]; first of two sections", "value": "46 ± 7.5", "unit": "%"}, {"measurement": "Left ventricular area (mm^2) Infarct region", "setting": "[3]; second of two sections", "value": "14.6 ± 3.23", "unit": "mm^2"}, {"measurement": "Left ventricular area (mm^2) Normal region", "setting": "[3]; second of two sections", "value": "41.0 ± 8.03", "unit": "mm^2"}, {"measurement": "Left ventricular area Infarct rate (%)", "setting": "[3]; second of two sections", "value": "26 ± 2.2", "unit": "%"}, {"measurement": "Left ventricular outer diameter (cm) Infarct region", "setting": "[3]; second of two sections", "value": "1.2 ± 0.37", "unit": "cm"}, {"measurement": "Left ventricular outer diameter (cm) Normal region", "setting": "[3]; second of two sections", "value": "2.3 ± 0.41", "unit": "cm"}, {"measurement": "Left ventricular outer diameter Infarct rate (%)", "setting": "[3]; second of two sections", "value": "34 ± 10.2", "unit": "%"}]}]}
